Data set [1] deals with T1, hTLR9 (Homo sapiens, UniProt Q9NR96).
T1 sequence (Q9NR96 26-1032): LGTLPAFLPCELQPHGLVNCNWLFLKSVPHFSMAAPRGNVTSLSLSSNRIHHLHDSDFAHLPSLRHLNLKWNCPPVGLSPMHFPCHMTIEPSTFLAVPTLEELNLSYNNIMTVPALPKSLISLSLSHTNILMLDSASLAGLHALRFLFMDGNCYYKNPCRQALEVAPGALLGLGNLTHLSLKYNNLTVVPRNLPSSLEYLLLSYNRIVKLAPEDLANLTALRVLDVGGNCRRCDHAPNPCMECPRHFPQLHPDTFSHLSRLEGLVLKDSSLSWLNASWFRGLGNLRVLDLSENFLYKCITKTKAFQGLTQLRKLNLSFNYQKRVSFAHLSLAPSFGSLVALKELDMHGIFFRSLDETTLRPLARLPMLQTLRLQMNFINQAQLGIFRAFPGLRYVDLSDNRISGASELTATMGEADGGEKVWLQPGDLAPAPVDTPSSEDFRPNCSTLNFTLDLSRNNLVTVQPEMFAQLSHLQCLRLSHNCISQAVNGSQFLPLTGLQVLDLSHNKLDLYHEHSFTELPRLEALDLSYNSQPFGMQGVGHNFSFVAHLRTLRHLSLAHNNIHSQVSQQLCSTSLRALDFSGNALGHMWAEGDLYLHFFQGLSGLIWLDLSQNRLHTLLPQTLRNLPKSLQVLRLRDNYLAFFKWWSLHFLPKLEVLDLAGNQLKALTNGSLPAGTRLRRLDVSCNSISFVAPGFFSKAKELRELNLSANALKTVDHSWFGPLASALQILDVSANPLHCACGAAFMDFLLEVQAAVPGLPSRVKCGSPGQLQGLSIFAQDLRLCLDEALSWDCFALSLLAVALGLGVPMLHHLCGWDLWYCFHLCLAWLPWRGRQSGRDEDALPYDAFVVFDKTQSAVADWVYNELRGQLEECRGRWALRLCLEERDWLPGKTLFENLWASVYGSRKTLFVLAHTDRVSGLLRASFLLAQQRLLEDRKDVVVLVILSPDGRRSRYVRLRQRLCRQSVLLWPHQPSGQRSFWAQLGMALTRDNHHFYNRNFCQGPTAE
As to the kind of experiment: HEK293-Blue-hTLR-9 cells assay. In kind it is cell-based. Further details: host or cells: HEK293-Blue-hTLR-9 (HEK293). The note with it: HEK293-Blue-hTLR9 cells, ODN2006 stimulation, 20 hrs, SEAP reporter; read-out: HEK/hTLR9 IC50. As to the method:
The following tests were carried out in order to determine the activity of the compounds of formula (I) and (Ia) in HEK293-Blue-hTLR-7/8/9 cells assay.
HEK293-Blue-hTLR-9 cells assay:
A stable HEK293-Blue-hTLR-9 cell line was purchased from InvivoGen (Cat. #: hkb-htlr9, San Diego, Calif., USA). These cells were originally designed for studying the stimulation of human TLR9 by monitoring the activation of NE-KB. A SEAP (secreted embryonic alkaline phosphatase) reporter gene was placed under the control of the IFN-β minimal promoter fused to five NE-κB and AP-1-binding sites. The SEAP was induced by activating NE-κB and AP-1 via stimulating HEK-Blue hTLR9 cells with TLR9 ligands. Therefore the reporter expression was declined by TLR9 antagonist under the stimulation of a ligand, such as ODN2006 (Cat. #: tlrl-2006-1, Invivogen, San Diego, Calif., USA), for incubation of 20 hrs. The cell culture supernatant SEAP reporter activity was determined using QUANTI-Blue™ kit (Cat. #: rep-qb1, Invivogen, San Diego, Calif., USA) at a wavelength of 640 nm, a detection medium that turns purple or blue in the presence of alkaline phosphatase.
HEK293-Blue-hTLR9 cells were incubated at a density of 250,000˜450,000 cells/mL in a volume of 170 μL in a 96-well plate in Dulbecco's Modified Eagle's medium (DMEM) containing 4.5 g/L glucose, 50 U/mL penicillin, […], […], 2 mM L-glutamine, 10% (v/v) heat-inactivated fetal bovine serum with addition of 20 μL test compound in a serial dilution in the presence of final DMSO at 1% and 10 μL of 20 uM ODN2006 in above DMEM, perform incubation under 37° C. in a CO2 incubator for 20 hrs. Then 20 μL of the supernatant from each well was incubated with 180 μL Quanti-blue substrate solution at 37° C. for 2 h and the absorbance was read at 620˜655 nm using a spectrophotometer. The signaling pathway that TLR9 activation leads to downstream NE-κB activation has been widely accepted, and therefore similar reporter assay was modified for evaluating TLR9 antagonist.

Data set [2] concerns the target T2, CYP2D6 (Homo sapiens, UniProt P10635).
T2 construct: tissue BD-Gentest 452117; host or cells: human liver microsomes
As to the kind of experiment: CYP inhibition assay in human liver microsome. In kind it is in vitro ADME. As to conditions: human liver microsomes, probe dextromethorphan, dextromethorphan substrate, percentage inhibition <0: not or weak inhibitor, read-out: CYP 2D6 inhibition %@10 μM. On the procedure: The compounds would be desirable to have minimal DDI liabilities. Therefore, the effects of compounds of formula (I) or (Ia) on CYP2D6 are determined.
This is a high throughput screening assay used for assessment of reversible inhibition of CYP2D6 activity of test compounds in human liver microsome (HLM) in early discovery stage.
10 mM DMSO stock solutions of test compounds were diluted in DMSO to generate 2 mM intermediate stock solution. 250 nL of intermediate stock solution were transferred in duplicate into 3 separate 384 well microtitre plates (assay-ready plates). A mixture of HLM and each substrate was made up. 45 μL of HLM substrate mix was then transferred to each well of an assay ready plate and mixed. The negative (solvent) and positive control (standard inhibitor for CYP 2D6) were included in each assay ready plate. The assay ready plate was warmed to 37° C. in an incubator over 10 minutes. 5 μL pre-warmed NADPH regenerating system was added to each incubation well to start the reaction. Final incubation volume was 50 μL. The assay plate then was placed back in the 37° C. incubator. After 10 minutes incubation, incubates were quenched by addition of 50 μL 100% acetonitrile containing internal standards (20 ng/mL D3-Dextrorphan). The supernatants were collected for RapidFire/MS/MS analysis.
RapidFire online solid phase extraction/sample injection system (Agilent) coupled with API4000 triple quadrupole mass spectrometer (AB Sciex) were used for sample analysis. The mobile phase composed of acetonitrile and water supplemented with 0.1% formic acid. A C4 solid phase extraction cartridge is used for sample separation. MS detection is achieved in positive ion MRM mode.
Data analysis Peak areas for substrate, metabolite and internal standard are determined using the RapidFire integrator software (version 3.6.12009.12296). Peak area ratios (PAR) of metabolite and internal standard (stable-labelled metabolite) are then calculated. The measurement window for each experiment is then defined:
PAR (0% activity), average PAR for all incubations containing concentrated inhibitor; Par (100% activity), average PAR for all incubations containing no inhibitor (DMSO controls);
% Activity (test inhibitor)=
=[PAR(test inhibitor)-PAR(0% activity)]/[PAR(100% activity)-PAR(0% activity)];
% Inhibition (test inhibitor)=100-% Activity (test inhibitor).
Background: Liver microsomes are a subcellular fraction often used to study metabolism.

What is called inhibition is the drop in the measured response relative to a control, in per cent.

T2 sequence (P10635 whole entry): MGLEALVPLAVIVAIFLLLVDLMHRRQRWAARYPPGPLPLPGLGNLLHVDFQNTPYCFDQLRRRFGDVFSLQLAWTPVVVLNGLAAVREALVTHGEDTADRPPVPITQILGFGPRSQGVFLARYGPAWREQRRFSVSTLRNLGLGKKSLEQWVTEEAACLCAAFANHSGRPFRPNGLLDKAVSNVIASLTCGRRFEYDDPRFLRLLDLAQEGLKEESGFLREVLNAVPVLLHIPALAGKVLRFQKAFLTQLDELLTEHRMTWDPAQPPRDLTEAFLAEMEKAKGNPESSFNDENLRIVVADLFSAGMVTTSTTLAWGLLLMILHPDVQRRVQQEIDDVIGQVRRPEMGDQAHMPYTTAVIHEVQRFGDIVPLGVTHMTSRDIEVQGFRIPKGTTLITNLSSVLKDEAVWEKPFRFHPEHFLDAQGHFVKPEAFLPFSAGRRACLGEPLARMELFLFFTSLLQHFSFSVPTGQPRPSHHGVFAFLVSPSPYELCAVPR

`C[C@@H]1CN(c2ccc(C#N)c3ncccc23)C[C@H](CN2CC3(C2)CN(c2ccnc(C4CC4)c2)CCO3)O1` [Example 3, 5-[(2S,6R)-2-[[8-(2-cyclopropyl-4-pyridyl)-5-oxa-2,8-diazaspiro[3.5]nonan-2-yl]methyl]-6-methyl-morpholin-4-yl]quinoline-8-carbonitrile]: the IC50 in data set [1] was determined as 0.048 µM. Further, in data set [2], the inhibition at 10 min, 10 μM amounted to 6%.
Take `Cc1cc(N2CC[C@@H](NC[C@H]3CN(c4ccc(C#N)c5ncccc45)C[C@@H](C)O3)C2)cc(CO)n1` [Example 28]: the IC50 in data set [1] was 0.057 µM.
Take `Cc1cc(N2CCN(C[C@H]3CN(c4ccc(C#N)c5ncccc45)C[C@@H](C)O3)CC2)cc(N)n1` [Example 40, 5-[(2S,6R)-2-[[4-(2-amino-6-methyl-4-pyridyl)piperazin-1-yl]methyl]-6-methyl-morpholin-4-yl]quinoline-8-carbonitrile]: the IC50 in data set [1] worked out at 0.041 µM. For the same molecule, in data set [2], the inhibition at 10 min, 10 μM is 14.5%.
Take `Cc1cc(N2CC[C@H](F)[C@H](NC[C@H]3CN(c4ccc(C#N)c5ncccc45)C[C@@H](C)O3)C2)cc(CO)n1` [Example 33]: the IC50 in data set [1] was found to be 0.122 µM.
As to `Cc1cc(N2CCC23CN(C[C@H]2CN(c4ccc(C#N)c5ncccc45)C[C@@H](C)O2)C3)cc(CO)n1` [Example 12], the IC50 in data set [1] amounted to 0.049 µM. Further, the inhibition at 10 min, 10 μM in data set [2] was -3%.
In the same order, the values of `Cc1cc(C2CCN(C[C@H]3CN(c4ccc(C#N)c5ncccc45)C[C@@H](C)O3)CC2)cc(N)n1` [Example 43, 5-[(2S,6R)-2-[[4-(2-amino-6-methyl-4-pyridyl)-1-piperidyl]methyl]-6-methyl-morpholin-4-yl]quinoline-8-carbonitrile] are 0.054 µM and -13%.
As for `Cc1cc(N2CCC23CN(C[C@H]2CN(c4ccc(C#N)c5ncccc45)C[C@@H](C)O2)C3)cc(C)n1` [Example 8], the IC50 in data set [1] was less than 0.032 µM.
In the case of `C[C@@H]1CN(c2ccc(C#N)c3ncccc23)C[C@H](CN[C@@H]2CCCN(c3ccnc(N)c3)C2)O1` [Example 21, 5-[(2S,6R)-2-[[[(3R)-1-(2-amino-4-pyridyl)-3-piperidyl]amino]methyl]-6-methyl-morpholin-4-yl]quinoline-8-carbonitrile], the IC50 in data set [1] was less than 0.032 µM. In data set [2], the inhibition at 10 min, 10 μM is 2%.
As to `C[C@@H]1CN(c2ccc(C#N)c3ncccc23)C[C@H](CN2CC3(C2)CN(c2ccnc(C4CC4)c2)C3)O1` [Example 49, 5-[(2S,6R)-2[[2-(2-cyclopropyl-4-pyridyl)-2,6-diazaspiro[3.3]heptan-6-yl]methyl]-6-methyl-morpholin-4-yl]quinoline-8-carbonitrile], in data set [1], the IC50 is 0.034 µM.
Take `Cc1cc(N2CCC(NC[C@H]3CN(c4ccc(C#N)c5ncccc45)C[C@@H](C)O3)CC2)cc(CO)n1` [Example 23]: in data set [1], the IC50 is less than 0.032 µM.
Take `C[C@@H]1CN(c2ccc(C#N)c3ncccc23)C[C@H](CNC2CCN(c3ccnc(N)c3)CC2)O1` [Example 20, 5-[(2S,6R)-2-[[[1-(2-amino-4-pyridyl)-4-piperidyl]amino]methyl]-6-methyl-morpholin-4-yl]quinoline-8-carbonitrile]: the IC50 in data set [1] came out at 0.036 µM.
Still for that read-out and setting: in the case of `Cc1cc(N2CC[C@H](NC[C@H]3CN(c4ccc(C#N)c5ncccc45)C[C@@H](C)O3)C2)cc(CO)n1` [Example 29] it was 0.059 µM; in that of `Cc1cc(N2CCOC3CN(CC4CN(c5ccc(C#N)c6ncccc56)CC(C)O4)CC32)cc(C)n1` (single isomer, unassigned) [Example 17A], 0.154 µM; in that of `C[C@@H]1CN(c2ccc(C#N)c3ncccc23)C[C@H](CN2CCN(c3ccnc(N)c3)CC2)O1` [Example 19, 5-[(2S,6R)-2-[[4-(2-amino-4-pyridyl)piperazin-1-yl]methyl]-6-methyl-morpholin-4-yl]quinoline-8-carbonitrile], 0.062 µM.
The same measure, in the same setting: the figure for `Cc1cc(N2CC(NC[C@H]3CN(c4ccc(C#N)c5ncccc45)C[C@@H](C)O3)CC(F)(F)C2)cc(CO)n1` (stereo partly shown) [Example 36] is 0.215 µM; for `Cc1cc(N2CCN(C[C@H]3CN(c4ccc(C#N)c5ncccc45)C[C@@H](C)O3)[C@@H](C)C2)cc(CO)n1` [Example 4A] it is 0.148 µM; for `Cc1cc(N2CCN(C[C@H]3CN(c4ccc(C#N)c5ncccc45)C[C@@H](C)O3)[C@H](C)C2)cc(CO)n1` [Example 4B] it is 0.145 µM.
On to `Cc1cc(N2CC(N(C)C[C@H]3CN(c4ccc(C#N)c5ncccc45)C[C@@H](C)O3)C2)cc(CO)n1` [Example 37], for which the IC50 in data set [1] came to 0.16 µM.
Turning to `C[C@@H]1CN(c2ccc(C#N)c3ncccc23)C[C@H](CN2CC3(C2)CN(c2ccnc(C(C)(C)O)c2)C3)O1` [Example 48, 5-[(2S,6R)-2[[2-[2-(1-hydroxy-1-methyl-ethyl)-4-pyridyl]-2,6-diazaspiro[3.3]heptan-6-yl]methyl]-6-methyl-morpholin-4-yl]quinoline-8-carbonitrile], the IC50 in data set [1] came to 0.148 µM.
Regarding `Cc1cc(N2CC[C@@H](F)[C@H](NC[C@H]3CN(c4ccc(C#N)c5ncccc45)C[C@@H](C)O3)C2)cc(CO)n1` [Example 34], the IC50 in data set [1] worked out at 0.155 µM.

The record behind these values is patent US20210269451A1, “PYRIDINYL HETEROCYCLYL COMPOUNDS FOR THE TREATMENT OF AUTOIMMUNE DISEASE” (Hoffmann-La Roche Inc., priority 2018, published 2021).
